# According to ChEMBL document CHEMBL3390839, “Triazolopyrimidinones as -secretase modulators: structureactivity relationship, modulator profile, and in vivo profiling” (Medchemcomm, 2013):
# What was measured:
# Mus musculus [1] = experiment: Reduction in amyloid beta42 production in C57BL/6 mouse brain at 50 umol/kg, po after 1.5 hrs by ELISA relative to vehicle treated control; assay type: functional; conditions: C57BL/6, Brain
# [2] = Inhibition of gamma-secretase in mouse primary cortical neurons cells assessed as amyloid beta42 production after 5 days by ELISA; assay type: cell-based, Cerebral cortex neuron; conditions: cerebral cortex neuron
# [3] = Solubility of the compound; assay type: physicochemical
# [4] = Half life in C57BL/6 mouse at 10 umol/kg, po; assay type: ADME, organism-based; conditions: in vivo
# Mus musculus [5] = experiment: Reduction in amyloid beta42 production in C57BL/6 mouse brain at 150 umol/kg, po after 1.5 hrs by ELISA relative to vehicle treated control; assay type: functional; conditions: C57BL/6, Brain
# [6] = Oral bioavailability in C57BL/6 mouse at 10 umol/kg; assay type: ADME, organism-based; conditions: in vivo
# [7] = Permeability across basolateral to apical side in human Caco2 cells; assay type: ADME, cell-based; conditions: Caco-2, read-out: permeability
# Liver microsome = experiment: Intrinsic clearance in human liver microsomes measured pre ug of protein; assay type: ADME
# [8] = Cmax in C57BL/6 mouse at 10 umol/kg, po; assay type: ADME, organism-based; set-up: dose 10 umol/kg, route oral; conditions: in vivo
# [9] = Volume of distribution at steady state in C57BL/6 mouse at 3 umol/kg, iv; assay type: ADME, organism-based; conditions: in vivo, read-out: Vdss
# [10] = Permeability across apical to basolateral side in human Caco2 cells; assay type: ADME, cell-based; conditions: Caco-2, read-out: permeability
# Gamma-secretase = experiment: Inhibition of human gamma-secretase in HEK-APPswe cells assessed as amyloid beta42 production by electrochemiluminescence assay; assay type: cell-based
# [11] = target: Voltage-gated inwardly rectifying potassium channel KCNH2 (Homo sapiens, UniProt Q12809); experiment: Inhibition of human ERG
# Sequence of Voltage-gated inwardly rectifying potassium channel KCNH2 (Q12809 whole entry): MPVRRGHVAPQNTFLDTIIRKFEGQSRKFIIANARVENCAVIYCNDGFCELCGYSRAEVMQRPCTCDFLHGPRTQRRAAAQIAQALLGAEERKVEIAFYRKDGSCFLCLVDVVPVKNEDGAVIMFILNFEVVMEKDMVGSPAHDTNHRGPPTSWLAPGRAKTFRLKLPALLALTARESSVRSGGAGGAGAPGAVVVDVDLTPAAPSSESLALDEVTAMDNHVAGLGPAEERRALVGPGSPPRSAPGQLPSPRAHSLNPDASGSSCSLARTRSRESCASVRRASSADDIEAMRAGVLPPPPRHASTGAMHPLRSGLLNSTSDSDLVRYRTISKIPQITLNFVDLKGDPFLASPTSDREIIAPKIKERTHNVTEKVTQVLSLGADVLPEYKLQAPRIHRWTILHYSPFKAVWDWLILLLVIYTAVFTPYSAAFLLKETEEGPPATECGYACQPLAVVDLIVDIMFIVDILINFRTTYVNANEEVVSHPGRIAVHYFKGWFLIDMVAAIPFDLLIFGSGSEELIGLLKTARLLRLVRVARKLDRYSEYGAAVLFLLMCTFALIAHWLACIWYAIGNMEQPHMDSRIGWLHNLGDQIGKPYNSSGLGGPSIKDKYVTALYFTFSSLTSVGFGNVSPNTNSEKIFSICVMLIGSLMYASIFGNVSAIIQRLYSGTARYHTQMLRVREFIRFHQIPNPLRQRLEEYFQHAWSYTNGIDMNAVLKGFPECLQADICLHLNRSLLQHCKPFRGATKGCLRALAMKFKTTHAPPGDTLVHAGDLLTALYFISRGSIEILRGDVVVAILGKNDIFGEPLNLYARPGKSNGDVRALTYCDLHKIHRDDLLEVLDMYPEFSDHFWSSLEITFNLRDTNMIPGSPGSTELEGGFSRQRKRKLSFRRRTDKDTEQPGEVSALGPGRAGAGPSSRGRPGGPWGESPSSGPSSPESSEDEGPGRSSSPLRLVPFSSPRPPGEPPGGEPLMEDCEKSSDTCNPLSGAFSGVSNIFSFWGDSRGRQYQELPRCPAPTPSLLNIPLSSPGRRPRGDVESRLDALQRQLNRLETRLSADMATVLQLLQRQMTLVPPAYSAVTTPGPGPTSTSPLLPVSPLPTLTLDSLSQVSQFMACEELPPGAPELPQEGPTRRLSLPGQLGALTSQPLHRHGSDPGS
# Mus musculus [12] = experiment: Dose normalized AUC in C57BL/6 mouse at 10 umol/kg, po; assay type: ADME, organism-based; conditions: in vivo
# Mus musculus [13] = experiment: Dose normalized AUC in C57BL/6 mouse at 3 umol/kg, iv; assay type: ADME, organism-based; conditions: in vivo
# [14] = Ratio of drug level in brain to plasma in C57BL/6 mouse; assay type: ADME, organism-based; conditions: brain and plasma, read-out: BPR
# [15] = Half life in C57BL/6 mouse at 3 umol/kg, iv; assay type: ADME, organism-based; conditions: in vivo
# [16] = Clearance in C57BL/6 mouse at 3 umol/kg, iv; assay type: ADME, organism-based; conditions: in vivo
# [17] = Tmax in C57BL/6 mouse at 10 umol/kg, po; assay type: ADME, organism-based; conditions: in vivo
compound,measurement,setting,value
COc1cc(Nc2nc3n(n2)C(C)CC(=O)N3Cc2ccccc2)ccc1-n1cnc(C)c1 (stereo in doubt; 19B),inhibition in vivo at 50 µmol/kg,Mus musculus [1],9%
same,pIC50,[2],7.7
same,solubility,[3],6 µM
same,half-life,[4],312 min
same,inhibition in vivo at 150 µmol/kg,Mus musculus [5],24%
same,bioavailability,[6],32%
same,Papp B→A,[7],13 ×10⁻⁶ cm/s
same,CLH,Liver microsome,52 µL/min
same,Cmax,[8],1200 nM
same,Vd,[9],0.9 L/kg
same,Papp A→B,[10],22 ×10⁻⁶ cm/s
same,pIC50,Gamma-secretase,8
same,IC50,[11],3.7 µM
same,AUC/dose,Mus musculus [12],0.27 kg·h/L
same,AUC/dose,Mus musculus [13],0.84 kg·h/L
same,Kp,[14],0.72
same,half-life,[15],36 min
same,clearance,[16],21 mL/min/kg
same,Tmax,[17],30 min
